Measurements reported in patent US20230270721A1, “INHIBITION OF BAX-MEDIATED CELL DEATH BY ELTROMBOPAG” (Albert Einstein College of Medicine, priority 2020, published 2023).

Key:
BAX [1] = target: T1, BAX (Homo sapiens, UniProt Q07812); assay: Competitive fluorescence polarization binding assay (FPA), BAX / FITC-BIM-SAHB; conditions: FITC-BIM-SAHB 25 nM
T1 construct: Human full-length (1-192) wild-type BAX (Q07812); made in house; host or cells: E. coli BL21 (DE3) CodonPlus (DE3)-RIPL
Description: Fluorescence polarization assays (FPA) were performed as previously described (Gavathiotis, E., et al. Nat Chem Biol 8, 639-645 (2012)). Direct binding isotherms of BIM-SAHB were measured by incubated FITC-BIM-SAHB (25 nM) with serial dilutions of full-length BAX alone or in the presence of 0.5 or 1 µM EO. Competition binding assays were performed by titrating ED into BAX (150 nM) and FITC-BIM-SAHB (25 nM). Measurements were taken at 10-minute intervals over 60 minutes on a TECAN F200 PRO microplate reader. Reported curves represent 10-minute time point. KD values and IC50 were determined using GraphPad Prism nonlinear fit four-parameter agonist or antagonist versus response with restraints for 100% and 0% bound calculated by the mP of saturated BAX + FITC-BIM-SAHB and FITC-BIM-SAHB alone.
To test this hypothesis, a competitive fluorescence polarization assay (FPA) (Gavathiotis, E., et al. Nat Chem Biol 8, 639-645 (2012)) based on the interaction between BAX and fluorescently-labeled stapled BIM-BH3 peptide (FITC-BIM-SAHB) was used (Gavathiotis, E., et al. Nature 455, 1076-1081 (2008)). […] The IC50 and KD are consistent with a competitive binding mechanism of EO displacing FITC-BIM-SAHB from the N-terminal trigger site of BAX.

[2] = test system: BAK-/- mouse embryonic fibroblasts (MEFs); assay: Caspase 3/7 assay, STS-induced apoptosis, MEFs expressing only BAX; type: cell-based; conditions: 3 µM STS, 6 hr
Text: (§1) FIGS. 7A, 7B, 7C, 7D, 7E, and 7F are a set of diagrams showing that eltrombopag inhibits BAX translocation and BAX-mediated apoptosis in cells. […] BAX translocation is based on antibody-based detection of BAX and mitochondrial protein TOMM20. Representative confocal micrographs from three independent biological experiments. Scale bar, 20 µm. […] Data represent ±SEM of three independent biological replicates. Two-sided t test, ****P < 0.0001; ***P < 0.001; **P < 0.01; *P < 0.05; ns, P > 0.05. […] Actin and VDAC are loading controls for cytosolic and mitochondrial fractions, respectively. FIGS. 7D and 7E show a caspase 3/7 assay of BAK-/- mouse embryonic fibroblasts (MEFs) (FIG. 7D) and BAX-/-MEFs (FIG. 7E) in response to 3 µM STS and the presence or absence of various doses of EO for 6 hr. […]
(§2) It is important to note that THPO-receptor agonist activity of EO is highly specific to the human and chimpanzee THPO-receptors, making mouse cell lines ideal for studying EO modulation of BAX-dependent activity independent of THPO-mediated effects (Erickson-Miller, C. L. et al. Stem Cells 27, 424-430 (2009)). First, mitochondrial cytochrome c release, a hallmark of BAX activation and BAX-dependent apoptosis, was evaluated. […] Next, mitochondrial translocation of cytosolic BAX upon treatment with either BIM BH3 or staurosporine (STS) in BAK KO MEFs was evaluated.

BAX [3] = target: T1, BAX; assay: Recombinant BAX TM (Tycho NT.6); type: binding; conditions: 1:10 BAX:EO
Description: Purified recombinant BAX ([…]) was combined with DMSO or EO (1:10 BAX:EO) and loaded into Tycho NT.6 (NanoTemper Technologies) capillaries. First derivative (330/350 nm) melting point curves were generated automatically using the Tycho NT.6 (NanoTemper Technologies). Data was exported and to GraphPad PRISM software for analysis and visualization.
To confirm direct engagement of BAX, Cellular Thermal Shift Assay (CETSA) was performed in BAK KO MEFs.

BAK KO MEFs = assay: Mitochondrial translocation of cytosolic BAX in cells; type: cell-based, mouse; conditions: BIM BH3 or 2 µM staurosporine (STS); 10 or 20 µM EO
Text: as §1, §2

BAK KO (BAK-/-) MEFs = assay: Cytochrome c release assay (ELISA), BAK KO MEFs; type: cell-based, mouse; design: dose or concentration left out as unconfirmed; conditions: BIM-BH3 peptide, EO pretreatment 2 hours
Description: BAX^-/^- or BAK^-/^- mouse embryonic fibroblasts were maintained in DMEM (Life Technologies) supplemented with 10% FBS, 100 U/mL penicillin/streptomycin, 2 mM I-glutamine, and 0.1 mM MEM nonessential amino acids. MEFs (5×10^4 cells/well) were seeded in a 96 well clear u-bottom plate for 18-24 hr. Media was removed and replaced with media lacking FBS, and cells were treated with varying doses of EO for 2 hours at 37° C. […] Cytochrome c release was determined by decanting 50 µL of the supernatant and analyzing with the rat/mouse cytochrome c quantikine ELISA kit (R&D Systems, MCTO) according to the recommended protocol. […]
as §2

[4] = test system: megakaryocyte precursors and progenitor cells; conditions: differentiation of megakaryocyte precursors and progenitor cells; cited from earlier work

T1 sequence (Q07812 whole entry): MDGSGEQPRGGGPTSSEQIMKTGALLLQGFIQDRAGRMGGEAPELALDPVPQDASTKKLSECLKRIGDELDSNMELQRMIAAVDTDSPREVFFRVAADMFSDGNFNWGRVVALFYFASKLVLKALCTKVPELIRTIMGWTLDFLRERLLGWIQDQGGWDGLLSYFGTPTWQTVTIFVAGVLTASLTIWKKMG

Compound: CC1=NN(c2ccc(C)c(C)c2)C(=O)/C1=N\Nc1cccc(-c2cccc(C(=O)O)c2)c1O [EO, eltrombopag]
- IC50 (BAX [1]; BAX 150 nM, 10-minute time point, read-out: half-maximal inhibition IC50, competition of FITC-BIM-SAHB): 207 nM
- affinity of BAX for FITC-BIM-SAHB in the presence of EO (BAX [1]; direct binding titration of BAX, 0.5 or 1 µM EO): decreased affinity
- STS-induced apoptosis mediated by caspase 3/7 activity [2]: inhibited STS-induced apoptosis
- change in TM of recombinant BAX (BAX [3]): comparable reduction in TM
- mitochondrial translocation of cytosolic BAX (BAK KO MEFs): capable of inhibiting BAX translocation
- BIM-BH3 induced release of cytochrome c (BAK KO (BAK-/-) MEFs): significantly inhibited
- time for stimulation of platelet production to begin [4]: 5 days
